Data from PMC7046902, “Daphnane Diterpenoids from Trigonostemon lii and Inhibition Activities Against HIV-1” (Natural Products and Bioprospecting, 2020).
Converted amounts (≈) assume the structure as drawn.

Test system: not listed separately
Test: in vitro
Format: cell-based
Conditions: human; C8166 cells, MTT, 3 days; read-out: cytotoxicity CC50
Protocol: (§1) Cellular toxicity of compounds was assessed by MTT method. Briefly, cells were seeded on a microtiter plate in the absence or presence of various concentrations of compounds in triplicate and incubated at 37 °C in a humid atmosphere of 5% CO2 for 3 days. Twenty microliters of MTT reagent (5 mg/mL in PBS) was added to each well, then incubated at 37 °C for 4 h, 100 μL of 50% DMF-20% SDS was added. After the formazan was dissolved completely, the plates were read on a Bio-Tek ELx 800 ELISA reader at 595 nm/630 nm (A595/630). The cytotoxic concentration that caused the reduction of viable cells by 50% (CC50) was calculated from dose–response curve.
as §1, with “b. MTT-based cytotoxicity assay. Cellular” for “Cellular”, “4h,” for “4 h,”, “595nm/630” for “595 nm/630”, “dose-response curve ^[2].” for “dose–response curve.”

Row | Molecule | CC50 [ng/mL]
1 | CC1CCCCCCC(C)C(=O)OC2C(=CCl)C=C3C2(O)C(O)C2(CO)OC2C2C4OC5(c6ccccc6)OC(C(C)C32O5)C4(O)C(O)(COC(=O)c2ccccc2O)C1 (stereo not drawn) [Compound 5, Trigocherriolide A] | 15500 (≈ 18200 nM)
2 | CC1CCCCCCC(C)C(=O)OC2C(=CCl)C=C3C2(O)C(O)C2(CO)OC2C2C4OC5(c6ccccc6)OC(C(C)C32O5)C4(O)C(O)(CO)C1 (stereo not drawn) [Compound 6, Trigocheriolide E] | 18300 (≈ 24900 nM)

Test system: fusion of H9/HIV-1IIIB cells with uninfected C8166 cells
Test: not given
Conditions: 6 h

Row | Molecule | EC50, inhibition of fusion of H9/HIV-1IIIB cells with uninfected C8166 cells [ng/mL]
3 | Enfuvirtide | 9.77

Test system: HIV-1IIIB
Test: microbe, parasite or virus in culture
Format: cell-based
Conditions: 1IIIB
Protocol: (§2) In the presence of 100 μL various concentrations of compounds, C8166 cells (4 × 10^5/mL) were infected with virus (HIV-1IIIB) at a multiplicity of infection (M.O.I) of 0.06. The final volume per well was 200 μL. Control assays were performed without the testing compounds in HIV-1IIIB infected and uninfected cultures. AZT was included as positive control. After 3 days of culture, the cytopathic effect (CPE) was measured by counting the number of syncytia (multinucleated giant cell). Percentage inhibition of syncytia formation was calculated and 50% effective concentration (EC50) was calculated.
as §2, with “c. Syncytia assay. In” for “In”, “(4×10^5/mL)” for “(4 × 10^5/mL)”, “calculated ^[3].” for “calculated.”

Row | Molecule | anti-HIV-1 EC50 (syncytia formation induced by HIV-1IIIB) [ng/mL]
4 | Enfuvirtide | 97.25

Same assay, conditions: C8166 cells, HIV-1IIIB

Row | Molecule | selectivity index CC50/EC50
5 | CC1CCCCCCC(C)C(=O)OC2C(=CCl)C=C3C2(O)C(O)C2(CO)OC2C2C4OC5(c6ccccc6)OC(C(C)C32O5)C4(O)C(O)(COC(=O)c2ccccc2O)C1 (stereo not drawn) [Compound 5, Trigocherriolide A] | 5407.67
6 | CC1CCCCCCC(C)C(=O)OC2C(=CCl)C=C3C2(O)C(O)C2(CO)OC2C2C4OC5(c6ccccc6)OC(C(C)C32O5)C4(O)C(O)(CO)C1 (stereo not drawn) [Compound 6, Trigocheriolide E] | 12193.33

Same assay, conditions: Human immunodeficiency virus 1, 72 h; C8166 cells, HIV-1IIIB, M.O.I 0.06, 3 days; read-out: anti-HIV-1 EC50 (syncytia formation induced by HIV-1IIIB)

Row | Molecule | EC50 [ng/mL]
7 | CC1CCCCCCC(C)C(=O)OC2C(=CCl)C=C3C2(O)C(O)C2(CO)OC2C2C4OC5(c6ccccc6)OC(C(C)C32O5)C4(O)C(O)(COC(=O)c2ccccc2O)C1 (stereo not drawn) [Compound 5, Trigocherriolide A] | 2.87 (≈ 3.36 nM)
8 | CC1CCCCCCC(C)C(=O)OC2C(=CCl)C=C3C2(O)C(O)C2(CO)OC2C2C4OC5(c6ccccc6)OC(C(C)C32O5)C4(O)C(O)(CO)C1 (stereo not drawn) [Compound 6, Trigocheriolide E] | 1.5 (≈ 2.05 nM)

Test system: pNL4-3gp41(36G)V38E,N42S
Test: not given
Format: cell-based, HIV-1
Conditions: T20-resistant strain pNL4-3gp41(36G)V38E,N42S in C8166 cells

Row | Molecule | EC50 (syncytium formation) [ng/mL]
9 | CC1CCCCCCC(C)C(=O)OC2C(=CCl)C=C3C2(O)C(O)C2(CO)OC2C2C4OC5(c6ccccc6)OC(C(C)C32O5)C4(O)C(O)(COC(=O)c2ccccc2O)C1 (stereo not drawn) [Compound 5, Trigocherriolide A] | 2.88 (≈ 3.37 nM)
10 | CC1CCCCCCC(C)C(=O)OC2C(=CCl)C=C3C2(O)C(O)C2(CO)OC2C2C4OC5(c6ccccc6)OC(C(C)C32O5)C4(O)C(O)(CO)C1 (stereo not drawn) [Compound 6, Trigocheriolide E] | 3.74 (≈ 5.1 nM)

Test system: pNL4-3gp41(36G)V38A,N42T
Test: not given
Format: cell-based, HIV-1
Conditions: T20-resistant strain pNL4-3gp41(36G)V38A,N42T in C8166 cells

Row | Molecule | EC50 (syncytium formation) [ng/mL]
11 | CC1CCCCCCC(C)C(=O)OC2C(=CCl)C=C3C2(O)C(O)C2(CO)OC2C2C4OC5(c6ccccc6)OC(C(C)C32O5)C4(O)C(O)(COC(=O)c2ccccc2O)C1 (stereo not drawn) [Compound 5, Trigocherriolide A] | 3.43 (≈ 4.02 nM)
12 | CC1CCCCCCC(C)C(=O)OC2C(=CCl)C=C3C2(O)C(O)C2(CO)OC2C2C4OC5(c6ccccc6)OC(C(C)C32O5)C4(O)C(O)(CO)C1 (stereo not drawn) [Compound 6, Trigocheriolide E] | 3.81 (≈ 5.2 nM)

Test system: HIV-1
Test: not given
Conditions: cited from earlier work

Row | Molecule | anti-HIV-1 EC50 [ng/mL]
13 | trigonothyrins C | 2190
14 | trigonothyrins F | 130

Test system: fusion of H9/HIV-1IIIB cells with uninfected C8166 cells
Test: cells
Conditions: Human immunodeficiency virus 1, C8166, 6 h, read-out: EC50, inhibition of fusion of H9/HIV-1IIIB cells with uninfected C8166 cells
Protocol: C8166 cells (3 × 10^4) co-cultured with 1 × 10^4 virus (HIV-1IIIB) infected H9 cells in the presence or absence of the compound with various concentrations at 37 °C in a humidified atmosphere of 5% CO2. T20 was used as positive control. After 6 h incubation, the number of syncytia was scored under an inverted microscope [18].
Co-cultivation assay. C8166 cells (3×10^4) co-cultured with 1×10^4 virus (HIV-1IIIB) infected H9 cells in the presence or absence of the compound with various concentrations at 37 °C in a humidified atmosphere of 5% CO2. Dextran sulfate (DS) was used as positive control. After 6 h incubation, the number of syncytia was scored under an inverted microscope ^[3].

Row | Molecule | EC50 [ng/mL]
15 | CC1CCCCCCC(C)C(=O)OC2C(=CCl)C=C3C2(O)C(O)C2(CO)OC2C2C4OC5(c6ccccc6)OC(C(C)C32O5)C4(O)C(O)(COC(=O)c2ccccc2O)C1 (stereo not drawn) [Compound 5, Trigocherriolide A] | 1.06 (≈ 1.24 nM)
16 | CC1CCCCCCC(C)C(=O)OC2C(=CCl)C=C3C2(O)C(O)C2(CO)OC2C2C4OC5(c6ccccc6)OC(C(C)C32O5)C4(O)C(O)(CO)C1 (stereo not drawn) [Compound 6, Trigocheriolide E] | 1.76 (≈ 2.4 nM)

Biological target: T1, purified recombinant HIV-1 RT (Human immunodeficiency virus type 1 group M subtype B, UniProt P04585)
T1 construct: purified recombinant HIV-1 RT; purchased Roche
Test: RT (reverse transcriptase) assay, ELISA RT kit
Format: biochemical
Conditions: read-out: EC50, inhibition of recombinant HIV-1 RT activity (converted)
Protocol: (§3) HIV-1 RT activity was measured by ELISA RT kit (Roche) using a commercially available kit according to the protocol provided by the manufacturer. Samples were incubated with DIG-labeled-reaction mixture at 37 °C for 15 h. Anti-DIG-POD solution was added afterward followed by substrate ABTS. The absorbance at 405/490 nm (A405/490) was determined in the ELISA reader.
as §3, with “e. RT (reverse transcriptase) assay. HIV-1” for “HIV-1”, “reader ^[4].” for “reader.”

Row | Molecule | EC50 [µM]
17 | CC1CCCCCCC(C)C(=O)OC2C(=CCl)C=C3C2(O)C(O)C2(CO)OC2C2C4OC5(c6ccccc6)OC(C(C)C32O5)C4(O)C(O)(COC(=O)c2ccccc2O)C1 (stereo not drawn) [Compound 5, Trigocherriolide A] | 313
18 | CC1CCCCCCC(C)C(=O)OC2C(=CCl)C=C3C2(O)C(O)C2(CO)OC2C2C4OC5(c6ccccc6)OC(C(C)C32O5)C4(O)C(O)(CO)C1 (stereo not drawn) [Compound 6, Trigocheriolide E] | 261
